Laboratory results taken from US20210290597A1, “METHOD OF TREATING A CONDITION ASSOCIATED WITH NEURODEGENERATION USING INHIBITORS OF OAT3” (Neuropore Therapies, Inc., priority 2018, published 2021).
Read-outs that look alike come from different tables or passages of the source.

Tests used:
human transporter OAT3 = target: T1, human transporter OAT3 (Homo sapiens, UniProt Q8TCC7); assay: Further OAT3 uptake inhibition assay (Table 2); type: cell-based; conditions: compound 0.03-10 μM
T1 construct: expressed in transfected cells; host or cells: MDCK-II
T1 sequence (Q8TCC7 1-542): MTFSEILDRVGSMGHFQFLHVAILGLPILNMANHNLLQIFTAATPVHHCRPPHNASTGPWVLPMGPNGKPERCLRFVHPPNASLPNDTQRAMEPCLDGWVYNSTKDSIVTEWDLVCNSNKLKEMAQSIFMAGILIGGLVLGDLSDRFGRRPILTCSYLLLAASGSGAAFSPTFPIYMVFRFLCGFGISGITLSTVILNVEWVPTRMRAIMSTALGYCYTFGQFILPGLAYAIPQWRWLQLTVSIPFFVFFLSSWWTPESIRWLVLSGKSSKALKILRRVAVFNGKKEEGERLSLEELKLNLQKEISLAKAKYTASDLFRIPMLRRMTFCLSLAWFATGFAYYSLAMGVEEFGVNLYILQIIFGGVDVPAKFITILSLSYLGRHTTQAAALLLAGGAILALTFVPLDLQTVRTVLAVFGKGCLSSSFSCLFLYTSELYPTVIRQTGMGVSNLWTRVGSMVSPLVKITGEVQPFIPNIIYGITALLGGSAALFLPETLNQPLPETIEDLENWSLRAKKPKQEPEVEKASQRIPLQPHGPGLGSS
Method: In a further assay, the effects of several other compounds (including compounds 2, 3, and 4) were assessed against OAT3. The assay was carried out using a similar procedure as described above, using para-aminohippurate (PAH) and estrone-3-sulfate (E3S) as the substrates for measuring OAT3-mediated transport. […] MDCK-II cells were grown in 96-well cell culture plates, and the cell plates are maintained at 37° C. in 5% CO2 atmosphere prior to initiation of the transport experiment. MDCK-II cells were maintained in DMEM with low glucose and 10% FBS. Cells passages up to 40 are seeded at 60K±10K cells/well on 96-well, transwell membrane plates approximately 24 hours before transfection. Transport assays were carried out approximately 48 hours after transfection. Radio-labeled para-aminohippurate ([3H]-PAH) and estrone-3-sulfate (E3S) were used as substrates for measuring OAT3-mediated transport, where the transport of the substrate was determined by radiometric detection. Probenecid was used as a reference inhibitor. Transport study samples were run in triplicate.
For uptake assays, the net transporter-mediated uptake rate (V) of the substrate by each SLC transporter was calculated as follows:
Transporter-mediated uptake rate(pmol/min/cm^2)=((Cellular accumulation in cells expressing the transporter)−(Mean cellular accumulation in control cells))/Incubation time.
Percent inhibition was calculated by dividing the transporter-mediated uptake rate in presence of the test article or the reference inhibitor by the transporter-mediated uptake rate in presence of vehicle control:
Percent inhibition=100−(100×(transporter-mediated uptake rate)with inhibitor/(transporter-mediated uptake rate)vehicle control)
For uptake assays, statistical analyses using an unpaired t test was performed between transporter-mediated uptake rate or ATP-dependent transport rate of probe substrate with vehicle control and the inhibitor. A p value of <0.05 was considered statistically significant.
Table 2 summarizes the inhibitory activity of these compounds against OAT3 in the uptake of probe substrate PAH (p-aminohippurate) or E3S (estrone-3-sulfate). The percent inhibition values were determined by testing compounds at a single concentration of 1 μM with a PAH concentration of 10 μM. Data represent the mean and standard deviation of triplicate samples. The IC50 values were calculated by means of a concentration response curve with a compound concentration range of 0.03-10 μM and a probe substrate concentration of 10 μM PAH or 0.1 μM E3S. The percent inhibition at the various concentrations was run in triplicate and the IC50 value was determined by non-linear regression using GraphPad Prism.

[1] = system: glial fibrillary acidic protein (GFAP); assay: GFAP IHC, L61 ASYN transgenic mice; type: in vivo
Method: Neuroinflammation is also associated with increased expression of glial fibrillary acidic protein (GFAP) in activated astrocytes, which is induced by a variety of molecules including pro-inflammatory mediators released from activated microglia (Saijo et al. 2009). Increased expression of glial fibrillary acidic protein (GFAP) represents astroglial activation and gliosis during neurodegeneration. (Brahmachari et al., 2006). The effects of Compound 1 on GFAP expression were assessed in both L61 ASYN transgenic and non-transgenic mice in a 1 month administration study. After 30 days, the mice were sacrificed, and IHC detection of GFAP was assessed in the harvested brain tissues.
The harvested brain tissues from treated mice were fixed (drop fixed in 4% PFA) and then sectioned into 40 micro thick sections using a vibratome. The representative sections containing the hippocampus were assessed for GFAP with standard immunohistochemistry staining. The general methods used for GFAP immunostaining follow those described in Rockenstein et al., J Neurosci Res. 2002, 68(5):568-78.

- IC50 (human transporter OAT3; 0.1 μM E3S, read-out: OAT3 inhibition substrate = E3S (IC50)): 891 nM
- IC50 (human transporter OAT3; 10 μM PAH, read-out: OAT3 inhibition substrate = PAH (IC50)): 252 nM
Compound: O=S(=O)(c1ccc(-n2cn[nH]c2=S)cc1)c1ccc(Cl)c(C(F)(F)F)c1 [Compound 1, 4-(4-((4-chloro-3-(trifluoromethyl)phenyl)sulfonyl)phenyl)-2,4-dihydro-3H-1,2,4-triazole-3-thione]
- GFAP levels, IHC staining intensity in representative images ([1]; 5 mg/kg or 10 mg/kg daily i.p.): reducing cortical levels of GFAP
- GFAP levels, quantification of IHC staining ([1]; 10 mg/kg daily i.p.): reduces the cortical GFAP levels in a statistically significant manner
